Reference: paper PMC5468247, “Development of a selective agonist for relaxin family peptide receptor 3” (Scientific Reports, 2017)

Key:
human RXFP3 [1] = target: T1, human RXFP3 (Homo sapiens, UniProt Q9NSD7); assay: Receptor binding assay, NanoLuc-conjugated R3/I5 tracer competition; settings: for binding potency towards RXFP3, in words: compared with R3/I5
T1 construct: expressed in transfected cells; host or cells: HEK293T
T1 sequence (Q9NSD7 1-469): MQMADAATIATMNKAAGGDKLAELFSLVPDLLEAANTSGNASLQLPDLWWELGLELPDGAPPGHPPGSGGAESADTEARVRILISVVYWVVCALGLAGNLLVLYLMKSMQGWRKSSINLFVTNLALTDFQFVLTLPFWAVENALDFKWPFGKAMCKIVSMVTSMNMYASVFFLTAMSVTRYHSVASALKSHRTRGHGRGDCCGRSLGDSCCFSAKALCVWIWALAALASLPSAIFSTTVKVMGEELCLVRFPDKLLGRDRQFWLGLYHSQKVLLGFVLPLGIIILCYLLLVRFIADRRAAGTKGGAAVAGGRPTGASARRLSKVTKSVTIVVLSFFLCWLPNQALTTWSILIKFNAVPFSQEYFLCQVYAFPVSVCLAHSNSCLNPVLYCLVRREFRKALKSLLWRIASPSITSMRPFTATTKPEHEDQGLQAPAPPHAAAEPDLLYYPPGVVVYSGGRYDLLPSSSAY
Protocol: (§1) Specific binding data are expressed as means ± SE (n = 3) and fitted to sigmoidal curves using SigmaPlot 10.0 software.
(§2) Briefly, HEK293T cells were transiently transfected with an expression construct of human RXFP3 or human RXFP4. On the next day, transfected cells were trypsinised, seeded into 96-well plates, and continuously cultured for 24–36 h to ~100% confluence. […] After incubation at 21 °C for 2 h, binding solution was removed and cells were washed twice with ice-cold phosphate-buffered saline (200 μl/well for each wash). Thereafter, cells were lysed by lysis solution (100 μl/well, Promega, Madison, WI, USA) and cell lysates were transferred to a white opaque 96-well plate (50 μl/well). After mixing with freshly diluted substrate (50 μl/well), bioluminescence was immediately measured on a SpectraMax M5 plate reader (Molecular Devices, Sunnyvale, CA, USA) in luminescence mode. […] The calculated specific binding data were expressed as means ± standard error (SE; n = 3) and fitted to sigmoidal curves using SigmaPlot 10.0 software.

human RXFP4 [2] = target: T2, human RXFP4 (Homo sapiens, UniProt Q8TDU9); assay: as above; settings: for binding potency towards RXFP4, in words: compared with R3/I5
T2 construct: expressed in transfected cells; host or cells: HEK293T
Protocol: as §1, §2

human RXFP3 [3] = target: T1, human RXFP3; assay: Receptor activation assay, CRE-controlled NanoLuc reporter; format: cell-based; settings: CRE-NanoLuc reporter, human RXFP3; for fold lower activation potency towards RXFP3 compared with R3/I5: relative to R3/I5
Text: (§3) HEK293T cells transiently cotransfected with a CRE-controlled NanoLuc reporter vector and the expression construct of human RXFP3 or human RXFP4 were used for activation assays. The measured bioluminescence data are expressed as means ± SE (n = 3) and fitted to sigmoidal or linear curves using SigmaPlot 10.0.
(§4) Briefly, HEK293T cells were transiently cotransfected with the NanoLuc reporter vector pNL1.2/CRE and the expression construct of human RXFP3 or human RXFP4. On the next day, transfected cells were trypsinised, seeded into 96-well plates, and continuously cultured for 24–36 h to ~90% confluence. To initiate activation assays, medium was removed and activation solution (serum-free DMEM medium plus 1% bovine serum albumin) containing 1.0 μM of forskolin and various concentrations of peptide was added (100 μl/well). After continuous culturing at 37 °C for 4 h, activation solution was removed and cells were lysed with lysis solution (100 μl/well, Promega). Cell lysates were then transferred to a white opaque 96-well plate (50 μl/well), mixed with freshly diluted substrate (50 μl/well), and bioluminescence was immediately measured on a SpectraMax M5 plate reader (Molecular Devices) in luminescence mode. The measured data were expressed as means ± SE (n = 3) and fitted to sigmoidal or linear curves using SigmaPlot 10.0 software.

human RXFP4 [4] = target: T2, human RXFP4; assay: as above; format: cell-based; settings: relative to R3/I5
Text: as §3, §4

T2 sequence (Q8TDU9 whole entry): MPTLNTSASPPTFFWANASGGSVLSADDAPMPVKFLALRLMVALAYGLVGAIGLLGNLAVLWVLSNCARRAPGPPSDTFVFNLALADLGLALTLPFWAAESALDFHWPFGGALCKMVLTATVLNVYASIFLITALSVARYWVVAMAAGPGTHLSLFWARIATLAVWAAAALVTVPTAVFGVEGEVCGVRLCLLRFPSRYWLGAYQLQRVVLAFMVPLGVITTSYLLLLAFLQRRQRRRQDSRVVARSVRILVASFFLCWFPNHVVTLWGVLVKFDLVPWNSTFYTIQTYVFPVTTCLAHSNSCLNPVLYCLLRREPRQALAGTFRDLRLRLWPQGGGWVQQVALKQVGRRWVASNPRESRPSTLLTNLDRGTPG

CC[C@H](C)[C@@H]1NC(=O)[C@H](Cc2ccccc2)NC(=O)[C@H](CCC(=O)O)NC(=O)[C@H](CCCNC(=N)N)NC(=O)CNC(=O)[C@@H](NC(=O)[C@H](CC(C)C)NC(=O)[C@H](CCCNC(=N)N)NC(=O)[C@@H](NC(=O)CNC(=O)[C@H](Cc2ccc(O)cc2)NC(=O)[C@@H]2CCCN2C(=O)[C@H](C)NC(=O)[C@H](C)NC(=O)[C@H](CCCNC(=N)N)NC(=O)[C@@H]2CCC(=O)N2)C(C)C)CSSC[C@@H]2NC(=O)[C@@H](NC(=O)[C@H](CC(C)C)NC(=O)[C@@H](NC(=O)[C@H](CCC(N)=O)NC(=O)[C@H](CC(C)C)NC(=O)[C@H](CC(=O)O)NC(=O)[C@H](CCC(N)=O)NC(=O)[C@H](CCCNC(=N)N)NC(=O)[C@H](CO)NC(=O)[C@H](CCCNC(=N)N)NC(=O)[C@H](CCCNC(=N)N)NC(=O)[C@H](CO)NC(=O)[C@@H](N)CCCNC(=N)N)[C@@H](C)O)CSSC[C@H](NC(=O)CNC(=O)[C@H](CC(=O)O)NC(=O)[C@H]([C@@H](C)O)NC2=O)C(=O)N[C@@H](CO)C(=O)N[C@@H](CCSC)C(=O)N[C@@H]([C@@H](C)O)C(=O)N[C@@H](CC(=O)O)C(=O)N[C@@H](CC(C)C)C(=O)N[C@@H](CO)C(=O)N[C@@H](C)C(=O)N[C@@H](CC(C)C)C(=O)N[C@H](C(=O)O)CSSC[C@@H](C(=O)N[C@@H](CO)C(=O)N[C@@H](CCCNC(=N)N)C(=O)N[C@@H](Cc2c[nH]c3ccccc23)C(=O)O)NC(=O)[C@H]([C@@H](C)O)NC(=O)[C@H](Cc2ccccc2)NC(=O)[C@H]([C@@H](C)CC)NC(=O)[C@H](C(C)C)NC(=O)[C@H](C)NC(=O)[C@H](CCCNC(=N)N)NC1=O [[∆B23-24]R3/I5]
fold lower binding potency for RXFP3 compared with R3/I5 (human RXFP3 [1]; relative to R3/I5): ~ 3 fold | fold lower binding potency towards RXFP4 compared with R3/I5 (human RXFP4 [2]; relative to R3/I5): ~ 10 fold | activation potency towards RXFP3, in words (human RXFP3 [3]; compared with R3/I5): lost all activation potency | fold lower activation potency towards RXFP4 compared with R3/I5 (human RXFP4 [4]): ~ 1000 fold

CC[C@H](C)[C@@H]1NC(=O)[C@H](Cc2ccccc2)NC(=O)[C@H](CCC(=O)O)NC(=O)[C@H](CCCNC(=N)N)NC(=O)CNC(=O)[C@@H](NC(=O)[C@H](CC(C)C)NC(=O)[C@H](CCCNC(=N)N)NC(=O)[C@@H](NC(=O)CNC(=O)[C@H](Cc2ccc(O)cc2)NC(=O)[C@@H]2CCCN2C(=O)[C@H](C)NC(=O)[C@H](C)NC(=O)[C@H](CCCNC(=N)N)NC(=O)[C@@H]2CCC(=O)N2)C(C)C)CSSC[C@@H]2NC(=O)[C@@H](NC(=O)[C@H](CC(C)C)NC(=O)[C@@H](NC(=O)[C@H](CCC(N)=O)NC(=O)[C@H](CC(C)C)NC(=O)[C@H](CC(=O)O)NC(=O)[C@H](CCC(N)=O)NC(=O)[C@H](CCCNC(=N)N)NC(=O)[C@H](CO)NC(=O)[C@H](CCCNC(=N)N)NC(=O)[C@H](CCCNC(=N)N)NC(=O)[C@H](CO)NC(=O)[C@@H](N)CCCNC(=N)N)[C@@H](C)O)CSSC[C@H](NC(=O)CNC(=O)[C@H](CC(=O)O)NC(=O)[C@H]([C@@H](C)O)NC2=O)C(=O)N[C@@H](CO)C(=O)N[C@@H](CCSC)C(=O)N[C@@H]([C@@H](C)O)C(=O)N[C@@H](CC(=O)O)C(=O)N[C@@H](CC(C)C)C(=O)N[C@@H](CO)C(=O)N[C@@H](C)C(=O)N[C@@H](CC(C)C)C(=O)N[C@H](C(=O)O)CSSC[C@@H](C(=O)N[C@@H](CCCNC(=N)N)C(=O)N[C@@H](Cc2c[nH]c3ccccc23)C(=O)O)NC(=O)[C@H]([C@@H](C)O)NC(=O)[C@H](Cc2ccccc2)NC(=O)[C@H]([C@@H](C)CC)NC(=O)[C@H](C(C)C)NC(=O)[C@H](C)NC(=O)[C@H](CCCNC(=N)N)NC1=O [[∆B23-25]R3/I5]
binding potency towards RXFP3, in words (human RXFP3 [1]): almost normal binding potency | binding potency towards RXFP4, in words (human RXFP4 [2]): almost normal binding potency | fold lower activation potency towards RXFP3 compared with R3/I5 (human RXFP3 [3]): ~ 30 fold | fold lower activation potency towards RXFP4 compared with R3/I5 (human RXFP4 [4]): ~ 30 fold

CC[C@H](C)[C@@H]1NC(=O)[C@H](Cc2ccccc2)NC(=O)[C@H](CCC(=O)O)NC(=O)[C@H](CCCNC(=N)N)NC(=O)CNC(=O)[C@@H](NC(=O)[C@H](CC(C)C)NC(=O)[C@H](CCCNC(=N)N)NC(=O)[C@@H](NC(=O)CNC(=O)[C@H](Cc2ccc(O)cc2)NC(=O)[C@@H]2CCCN2C(=O)[C@H](C)NC(=O)[C@H](C)NC(=O)[C@H](CCCNC(=N)N)NC(=O)[C@@H]2CCC(=O)N2)C(C)C)CSSC[C@@H]2NC(=O)[C@@H](NC(=O)[C@H](CC(C)C)NC(=O)[C@@H](NC(=O)[C@H](CCC(N)=O)NC(=O)[C@H](CC(C)C)NC(=O)[C@H](CC(=O)O)NC(=O)[C@H](CCC(N)=O)NC(=O)[C@H](CCCNC(=N)N)NC(=O)[C@H](CO)NC(=O)[C@H](CCCNC(=N)N)NC(=O)[C@H](CCCNC(=N)N)NC(=O)[C@H](CO)NC(=O)[C@@H](N)CCCNC(=N)N)[C@@H](C)O)CSSC[C@H](NC(=O)CNC(=O)[C@H](CC(=O)O)NC(=O)[C@H]([C@@H](C)O)NC2=O)C(=O)N[C@@H](CO)C(=O)N[C@@H](CCSC)C(=O)N[C@@H]([C@@H](C)O)C(=O)N[C@@H](CC(=O)O)C(=O)N[C@@H](CC(C)C)C(=O)N[C@@H](CO)C(=O)N[C@@H](C)C(=O)N[C@@H](CC(C)C)C(=O)N[C@H](C(=O)O)CSSC[C@@H](C(=O)NCC(=O)N[C@@H](CO)C(=O)N[C@@H](CCCNC(=N)N)C(=O)N[C@@H](Cc2c[nH]c3ccccc23)C(=O)O)NC(=O)[C@H]([C@@H](C)O)NC(=O)[C@H](Cc2ccccc2)NC(=O)[C@H]([C@@H](C)CC)NC(=O)[C@H](C(C)C)NC(=O)[C@H](C)NC(=O)[C@H](CCCNC(=N)N)NC1=O [[∆B23]R3/I5]
binding potency towards RXFP3, in words (human RXFP3 [1]): retained considerable binding potency | binding potency towards RXFP4, in words (human RXFP4 [2]): retained considerable binding potency | fold lower activation potency towards RXFP3 compared with R3/I5 (human RXFP3 [3]): ~ 300 fold | fold lower activation potency towards RXFP4 compared with R3/I5 (human RXFP4 [4]): ~ 300 fold
